Source: patent publication US20240293579A1, “Composition Comprising Trim31 and Rhbdf2 for Treatment of NAFLD/NASH” (CHONGQING MEIPULAN TECHNOLOGY CO., LTD, priority 2021, published 2024)

Columns and labels:
[1] = test system: Mice with a NASH phenotype (THTG-HFHF); assay: Carminic acid in mice with a NASH phenotype (THTG-HFHF), liver mRNA and protein levels; format: in vivo; conditions: 16 weeks
From the text: (§1) To further investigate the protective effects of Trim31 on liver steatosis, a nonalcoholic steatohepatitis (NASH) mice model was established in accordance with previous reports (Xu Min-Xuan,Tan Jun, et al., Journal of Hazardous Materials, 2020, 400: 123158). The THTG mice were then fed with HFHF diet (14% protein, 42% fat, 44% carbohydrates, 0.2% cholesterol and with a total of 42 g/L of carbohydreate mixed in drinking water at a ratio of 55% fructose and 45% sucrose by weight) for 16 weeks to produce phenotype of NASH. Also, the NTG mice used in this design as controls and were synchronously allowed to ad libitum access to this diet for 16 weeks.
(§2) Based on the effective protective effect of Trim31 in NAFLD, we accordingly investigated the therapeutic feasibility and effect of targeting the Trim31-Rhbdf2-MAP3K7 pathway in the development and progression of NASH. The THTG mice were then fed with an HFHF diet containing 14% protein, 42% fat, 44% carbohydrates, and 0.2% cholesterol and with a total of 42 g/L of carbohydrate mixed in drinking water at a ratio of 55% fructose and 45% sucrose by weight, for 16 weeks to generate mice with a NASH phenotype (THTG-HFHF).
Mice with a NASH phenotype (THTG-HFHF) were constructed according to the protocol described in Example 10. The control group (Ctrl), NASH-THTG group (Fru), low dose group (CAL, 0.5% CA+Fru), high dose group (CAH, 1% CA+Fru) were set up. The drug group was treated with 0.5% and 1% carminic acid (CA) by gavage.

[2] = test system: TRIM31 mRNA; assay: TRIM31 mRNA expression by RT-qPCR in PA/OA-induced L02 cells; format: cell-based, human; conditions: 100 μmol/L compound, PA/OA-induced L02 cells, RT-qPCR; for fold induction at 100 µM: Homo sapiens, read-out: Qdrug/Qctrl (TRIM31 mRNA expression level, drug group divided by control group)
Experimental: Palmitic acid/oleic acid (PA/OA) was used to induce the decrease of TRIM31 mRNA expression in human hepatocyte L02 cells. The cells were divided into control group and drug group. The drug group was treated with a concentration of 100 μmol/L compound, and the expression level of TRIM31 mRNA was detected by RT-qPCR. The expression level of TRIM31 mRNA in the drug group divided by that in the control group (Qdrug/Qctrl) was used to evaluate the ability of the compounds to promote TRIM31 expression. […]

[3] = test system: Mice with a NASH phenotype (THTG-HFHF); assay: Fisetin in mice with a NASH phenotype (THTG-HFHF), liver mRNA levels; format: in vivo; conditions: 16 weeks
From the text: as §1, §2
Mice with a NASH phenotype (THTG-HFHF) were constructed according to the protocol described in Example 10. A control group (Ctrl), a NASH group (THTG), and three drug groups (FIS) were set up. The three drug groups (FIS) were treated with 20 mg/kg, 40 mg/kg and 80 mg/kg fisetin (FIS) by gavage.

[4] = test system: Mice with a NASH phenotype (THTG-HFHF); assay: Betacyanin in mice with a NASH phenotype (THTG-HFHF), liver protein expression; format: in vivo; conditions: 0.2 g/kg mixed with feed, 16 weeks
From the text: as §1, §2
Mice with a NASH phenotype (THTG-HFHF) were constructed according to the protocol described in Example 10. A control group (Ctrl), a NASH group (THTG), and a drug group (BCN) were set up. The drug group was fed with 0.2 g/kg betacyanin (BCN) mixed with feed.

[5] = molecular target: T1, human RHBDF2, full-length, HA-tagged (RHBDF2-HA), Q6PJF5
T1 chain: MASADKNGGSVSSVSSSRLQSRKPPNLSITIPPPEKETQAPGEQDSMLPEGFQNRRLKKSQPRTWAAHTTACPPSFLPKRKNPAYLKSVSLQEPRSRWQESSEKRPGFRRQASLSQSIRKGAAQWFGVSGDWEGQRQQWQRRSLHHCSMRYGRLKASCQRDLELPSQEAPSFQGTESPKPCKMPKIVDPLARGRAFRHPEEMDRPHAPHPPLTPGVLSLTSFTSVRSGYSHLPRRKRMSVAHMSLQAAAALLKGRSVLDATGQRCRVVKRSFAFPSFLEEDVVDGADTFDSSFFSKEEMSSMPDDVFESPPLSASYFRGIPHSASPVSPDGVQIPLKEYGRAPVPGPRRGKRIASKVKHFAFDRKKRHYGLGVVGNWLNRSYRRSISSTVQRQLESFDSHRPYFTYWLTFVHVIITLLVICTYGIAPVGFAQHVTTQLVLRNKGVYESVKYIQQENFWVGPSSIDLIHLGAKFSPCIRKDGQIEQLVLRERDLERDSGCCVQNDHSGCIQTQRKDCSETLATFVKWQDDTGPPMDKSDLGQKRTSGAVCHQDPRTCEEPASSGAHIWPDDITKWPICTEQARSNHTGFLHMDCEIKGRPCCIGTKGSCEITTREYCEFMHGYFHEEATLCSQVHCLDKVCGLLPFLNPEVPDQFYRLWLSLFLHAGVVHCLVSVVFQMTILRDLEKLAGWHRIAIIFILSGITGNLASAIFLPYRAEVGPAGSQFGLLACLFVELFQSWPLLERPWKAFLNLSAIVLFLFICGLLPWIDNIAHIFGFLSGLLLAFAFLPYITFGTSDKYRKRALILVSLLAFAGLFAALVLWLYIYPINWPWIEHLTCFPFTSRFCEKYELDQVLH

Molecule: Cc1c(C(=O)O)c(O)cc2c1C(=O)c1c(O)c([C@@H]3O[C@H](CO)[C@@H](O)[C@H](O)[C@H]3O)c(O)c(O)c1C2=O [Carminic acid]
- Collagen I mRNA level in liver ([1]; 0.5% and 1% CA by gavage): significantly decreased
- Keap1 protein in liver ([1]; 0.5% and 1% CA by gavage): significantly decreased
- MMP-9 mRNA level in liver ([1]; 0.5% and 1% CA by gavage): significantly decreased
- TGF-β1 mRNA level in liver ([1]; 0.5% and 1% CA by gavage): significantly decreased
- TRIM31 protein expression in liver ([1]; 0.5% and 1% CA by gavage): significantly increased
- α-SMA mRNA level in liver ([1]; 0.5% and 1% CA by gavage): significantly decreased
- liver fibrosis and inflammation ([1]; gavage): effectively alleviated
- these indexes (fibrosis genes, Keap1, TRIM31) versus control group ([1]; high dose group (CAH, 1% CA)): close to the normal level of the control group
- fold induction at 100 µM [2]: 2.78

Molecule: O=c1c(O)c(-c2ccc(O)c(O)c2)oc2cc(O)ccc12 [Fisetin]
- Collagen I mRNA level in liver ([3]; 20, 40 and 80 mg/kg by gavage): significantly decreased
- Fibronectin mRNA level in liver ([3]; 20, 40 and 80 mg/kg by gavage): significantly decreased
- TGF-β1 mRNA level in liver ([3]; 20, 40 and 80 mg/kg by gavage): significantly decreased
- TRIM31 mRNA level in liver ([3]; 20, 40 and 80 mg/kg by gavage): significantly increased
- α-SMA mRNA level in liver ([3]; 20, 40 and 80 mg/kg by gavage): significantly decreased
- liver fibrosis and inflammation ([3]; gavage): significantly alleviated
- these indexes (fibrosis gene and TRIM31 mRNA levels) versus control group ([3]; high dose group (80 mg/kg)): close to the normal level of the control group
- fold induction at 100 µM [2]: 3.27

Molecule: Betacyanin
- Collagen I protein expression level in liver [4]: significantly reduced
- Keap1 protein expression level in liver [4]: significantly reduced
- TGF-β1 protein expression level in liver [4]: significantly reduced
- TRIM31 protein expression in liver [4]: increased
- liver fibrosis and inflammation [4]: effectively alleviated
- Qdrug/Qctrl (TRIM31 mRNA expression level, drug group divided by control group) [2]: 3.14 fold

B1: human TRIM31, full-length wild type, Flag-tagged (TRIM31-Flag WT) (protein)
chain: MASGQFVNKLQEEVICPICLDILQKPVTIDCGHNFCLKCITQIGETSCGFFKCPLCKTSVRKNAIRFNSLLRNLVEKIQALQASEVQSKRKEATCPRHQEMFHYFCEDDGKFLCFVCRESKDHKSHNVSLIEEAAQNYQGQIQEQIQVLQQKEKETVQVKAQGVHRVDVFTDQVEHEKQRILTEFELLHQVLEEEKNFLLSRIYWLGHEGTEAGKHYVASTEPQLNDLKKLVDSLKTKQNMPPRQLLEDIKVVLCRSEEFQFLNPTPVPLELEKKLSEAKSRHDSITGSLKKFKDQLQADRKKDENRFFKSMNKNDMKSWGLLQKNNHKMNKTSEPGSSSAGGRTTSGPPNHHSSAPSHSLFRASSAGKVTFPVCLLASYDEISGQGASSQDTKTFDVALSEELHAALSEWLTAIRAWFCEVPSS
- polyubiquitination of Rhbdf2 with single-lysine ubiquitin constructs (K48O, K63O, K33O, K6O, K29O, K27O) [5]: Trim31-mediated increase in polyubiquitination of Rhbdf2 could be greatly observed in the presence of K48-loading vector, but not with other vectors
